# Values of other authors in US20200323830A1, “TREATMENT OF VIRAL HEMORRHAGIC FEVERS WITH ETORICOXIB” (priority 2019, published 2020).
# Read-outs that look alike come from different tables or passages of the source.
# Assays:
# [1] = target: T1, COX-1 activity in circulating platelets (Homo sapiens, UniProt P23219); conditions: therapeutic doses, healthy subjects
# T1 construct: COX-1 activity in circulating platelets; endogenous in cells; host or cells: circulating platelets of healthy subjects
# T1 sequence (P23219 24-599): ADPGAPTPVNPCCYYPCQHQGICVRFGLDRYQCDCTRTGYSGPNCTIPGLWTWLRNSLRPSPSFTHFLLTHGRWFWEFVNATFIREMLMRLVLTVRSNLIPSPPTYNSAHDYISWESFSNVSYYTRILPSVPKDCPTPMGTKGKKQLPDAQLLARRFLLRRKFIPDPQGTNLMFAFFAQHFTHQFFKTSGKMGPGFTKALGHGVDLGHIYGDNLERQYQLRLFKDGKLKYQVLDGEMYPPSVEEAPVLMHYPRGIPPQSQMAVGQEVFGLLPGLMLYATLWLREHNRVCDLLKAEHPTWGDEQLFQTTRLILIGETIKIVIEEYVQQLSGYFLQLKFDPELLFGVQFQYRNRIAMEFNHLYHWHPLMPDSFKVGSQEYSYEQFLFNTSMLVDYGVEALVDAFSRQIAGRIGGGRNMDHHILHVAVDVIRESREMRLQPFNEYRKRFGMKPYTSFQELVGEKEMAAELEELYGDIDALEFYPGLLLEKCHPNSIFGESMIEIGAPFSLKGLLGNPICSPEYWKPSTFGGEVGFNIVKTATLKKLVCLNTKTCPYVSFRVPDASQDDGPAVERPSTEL
# [2] = versus placebo, acute pain after surgery
# [3] = tested on: platelet aggregation or bleeding time
# [4] = in vivo
# [5] = oral, once daily
# [6] = for incidence of joint bleeding: 90 mg, hemophilic arthropathy
# [7] = chronic use for up to one year
# [8] = chronic therapy, 4 grams daily
# [9] = not given; remark: listed apart in the source
# [10] = dengue infection
# [11] = dose of more than 60 mg/kg/day before admission, dengue subjects
# [12] = intake within 24 h, dengue subjects
# [13] = monkeys; similar to diclofenac and ibuprofen
# [14] = humans; similar to diclofenac and ibuprofen
compound,measurement,setting,value
"Cc1ccc(-c2ncc(Cl)cc2-c2ccc(S(C)(=O)=O)cc2)cn1 [etoricoxib, 5-chloro-2-(6-methylpyridin-3-yl)-3-[4-(trideuteriomethylsulfonyl)phenyl]pyridine]",effect on COX-1 activity in circulating platelets,[1],does not affect COX-1 activity in circulating platelets
same,fever AEs,[2],fewer fever AEs than subjects on placebo
same,COX-2 versus COX-1 selectivity,COX-2 versus COX-1,106 fold
same,effect on platelet aggregation or bleeding time,[3]; doses up to 500 mg,does not affect platelet aggregation or bleeding time
same,effects on bleeding time or platelet aggregation,[3]; ex vivo whole-blood assays after multiple oral doses,no important effects on bleeding time or platelet aggregation
same,GI tolerability and safety events,[4],significant improvements
same,half-life,[5],approximately 22 hours
same,median onset of action,acute pain settings,24 min
same,risk of bleeding,acute pain studies,not associated with an increased risk of bleeding
same,duration of sustained efficacy,single dose,24 h
same,incidence of joint bleeding,[6]; 6-month extension,78.9%
same,incidence of joint bleeding,[6]; 6-week portion,66.7%
same,serious AEs,"[6]; placebo-controlled portion, two events, both on etoricoxib",3.9%
same,subjects with elevated ALT or AST (≥3 times the upper limit of normal),[7],1%
CC(=O)Nc1ccc(O)cc1 [acetaminophen/paracetamol],persons with peak serum aminotransferase values ≥3 times the upper normal limit,[8],39%
same,share of all cases of acute liver failure,"[9]; academic centers of the Acute Liver Failure Study Group, 2005",42%
same,share of all cases of acute liver failure,"[9]; population-based, metropolitan Atlanta, 2007",41%
same,transaminase elevation,[10]; median daily dose 1.5 g,caused transaminase elevation
same,"pain scores, analgesic intake, length of stay, duration of fever",[10]; versus placebo,not significantly different from placebo
same,occurrence of hepatitis,[11],significantly associated with the occurrence of hepatitis
same,transaminase elevation,[12],significantly associated with transaminase elevation
CS(=O)(=O)c1ccc(C2=C(c3ccccc3)C(=O)OC2)cc1 [rofecoxib],antipyretic activity,[13],antipyretic activity
same,antipyretic activity,[14],antipyretic activity
